The first assay addresses T1, human glucagon receptor (Homo sapiens, UniProt P47871).
T1 construct: made in house; host or cells: FreeStyle CHO cells, transient transfection with pMSRαneo/hGCGR; membrane fraction (35,000 rpm pellet)
The assay is described as follows: Glucagon binding inhibitory activity ([125I]-glucagon binding to glucagon receptor membrane protein). Conditions: human glucagon receptor membrane protein, [125I]-glucagon, 90 min room temperature. The procedure, abridged:
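Receptor source was a membrane fraction of transiently transfected CHO cells bearing human receptor; 90 min room-temperature binding, filtration harvest, scintillation counting.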
T1 sequence (P47871 26-477): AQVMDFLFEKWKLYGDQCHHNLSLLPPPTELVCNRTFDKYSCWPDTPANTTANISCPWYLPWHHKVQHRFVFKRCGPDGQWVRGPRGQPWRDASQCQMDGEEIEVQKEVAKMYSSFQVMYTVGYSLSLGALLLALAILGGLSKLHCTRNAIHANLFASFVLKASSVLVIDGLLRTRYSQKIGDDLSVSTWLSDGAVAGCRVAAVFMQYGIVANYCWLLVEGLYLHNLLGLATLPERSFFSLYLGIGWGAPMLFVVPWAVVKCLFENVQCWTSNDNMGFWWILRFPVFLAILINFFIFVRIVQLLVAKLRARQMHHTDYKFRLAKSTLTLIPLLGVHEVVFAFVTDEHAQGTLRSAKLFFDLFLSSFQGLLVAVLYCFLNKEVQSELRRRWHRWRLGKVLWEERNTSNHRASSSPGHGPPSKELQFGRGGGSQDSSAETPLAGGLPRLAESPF
The IC50 is the midpoint of a concentration-inhibition curve. Low values mean greater potency in that assay, high ones weaker potency in that assay. Regarding `CC(C)c1nn(-c2ccc(C(F)(F)F)cn2)cc1C(Nc1ccc(C(=O)N(C)CCC(=O)O)cc1)C1CCCCC1` (centres unmarked) [Example 8, 3-[({4-[(cyclohexyl{3-(1-methylethyl)-1-[5-(trifluoromethyl)pyridin-2-yl]-1H-pyrazol-4-yl}methyl)amino]phenyl}carbonyl)(methyl)amino]propanoic acid], the IC50 stood at 410 nM.

With `O=C(O)CCNC(=O)c1ccc(NC(c2cc3ccc(C(F)(F)F)cc3s2)C2CCCCC2)cc1` (centres unmarked) [Example A12, 3-({[4-({cyclohexyl[6-(trifluoromethyl)-1-benzothiophen-2-yl]methyl}amino)phenyl]carbonyl}amino)propanoic acid], the IC50 came out at 210 nM.

Staying with this assay, now noted: test compound 10 μM; 0.4% DMSO = 0%, non-labeled glucagon 1 μM = 100%.
Take `COc1ccc2oc(C(Nc3ccc(C(=O)N(C)CCC(=O)O)cc3)C3CCCCC3)c(C)c2c1` (centres unmarked) [Example A44, 3-{[(4-{[cyclohexyl(5-methoxy-3-methyl-1-benzofuran-2-yl)methyl]amino}phenyl)carbonyl](methyl)amino}propanoic acid]: the “inhibitory rate (%) at 10 μM” value came to 82%.

The assay is the same for the next values; noted with them: test compound 10 μM; 0.4% DMSO = 0%, non-labeled glucagon 1 μM = 100%; read-out: inhibitory rate (%) at 10 μM.
With `CC(C)c1nn(-c2ccc(C(F)(F)F)cn2)cc1C(Nc1ccc(C(=O)N(C)CCC(=O)O)cc1)C1CCCCC1` (centres unmarked) [Example 8, 3-[({4-[(cyclohexyl{3-(1-methylethyl)-1-[5-(trifluoromethyl)pyridin-2-yl]-1H-pyrazol-4-yl}methyl)amino]phenyl}carbonyl)(methyl)amino]propanoic acid], the inhibition at 10 µM worked out at 75%.

`CSCCCOc1ccc2oc(C(Nc3ccc(C(=O)NCCC(=O)O)cc3)C3CCCCC3)c(C)c2c1` (centres unmarked) [Example A151, 3-[({4-[(cyclohexyl{3-methyl-5-[3-(methylsulfanyl)propoxy]-1-benzofuran-2-yl}methyl)amino]phenyl}carbonyl)amino]propanoic acid]: the inhibition at 10 µM was determined as 78%.

Take `Cc1nn(-c2ccccc2)cc1C(Nc1ccc(C(=O)NCCC(=O)O)cc1)C1CCCCC1` (centres unmarked) [Example 17, 3-{[(4-{[cyclohexyl(3-methyl-1-phenyl-1H-pyrazol-4-yl)methyl]amino}phenyl)carbonyl]amino}propanoic acid]: the inhibition at 10 µM was found to be 80%.

For `COc1ccc(-n2cc(C(Nc3ccc(C(=O)N(C)CCC(=O)O)cc3)C3CCCCC3)c(C3CC3)n2)cc1` (centres unmarked) [Example 47, 3-[{[4-({cyclohexyl[3-cyclopropyl-1-(4-methoxyphenyl)-1H-pyrazol-4-yl]methyl}amino)phenyl]carbonyl}(methyl)amino]propanoic acid], the inhibition at 10 µM worked out at 66%.

For `Cc1c(C(Nc2ccc(C(=O)NCCC(=O)O)cc2)C2CCCCC2)oc2ccc(Br)nc12` (centres unmarked) [Example A125, 3-{[(4-{[(5-bromo-3-methylfuro[3,2-b]pyridin-2-yl)(cyclohexyl)methyl]amino}phenyl)carbonyl]amino}propanoic acid], the inhibition at 10 µM was determined as 69%.

Turning to `CSCCCOc1ccc2oc(C(Nc3ccc(C(=O)N(C)CCC(=O)O)cc3)C3CCCCC3)c(C)c2c1` (centres unmarked) [Example A150, 3-[({4-[(cyclohexyl{3-methyl-5-[3-(methylsulfanyl)propoxy]-1-benzofuran-2-yl}methyl)amino]phenyl}carbonyl)(methyl)amino]propanoic acid], the inhibition at 10 µM stood at 81%.

For the molecule `COc1ccc(-n2cc(C(Nc3ccc(C(=O)N(C)CCC(=O)O)cc3)C3CCCCC3)c(C)n2)cc1` (centres unmarked) [Example 24, 3-[{[4-({cyclohexyl[1-(4-methoxyphenyl)-3-methyl-1H-pyrazol-4-yl]methyl}amino)phenyl]carbonyl}(methyl)amino]propanoic acid], the inhibition at 10 µM was found to be 73%.

For `CC(C)(C)c1nn(-c2ccc(C(F)(F)F)cn2)cc1C(Nc1ccc(C(=O)NCCC(=O)O)cc1)C1CCCCC1` (centres unmarked) [Example 13, 3-{[(4-{[{3-tert-butyl-1-[5-(trifluoromethyl)pyridin-2-yl]-1H-pyrazol-4-yl}(cyclohexyl)methyl]amino}phenyl)carbonyl]amino}propanoic acid], the inhibition at 10 µM was found to be 71%.

Regarding `O=C(O)CCNC(=O)c1ccc(NC(c2cc3cc(C(F)(F)F)ccc3s2)C2CCCCC2)cc1` (centres unmarked) [Example A11, 3-({[4-({cyclohexyl[5-(trifluoromethyl)-1-benzothiophen-2-yl]methyl}amino)phenyl]carbonyl}amino)propanoic acid], the inhibition at 10 µM is 74%.

Take `CN(CCC(=O)O)C(=O)c1ccc(NC(c2cn(-c3ccc(C(F)(F)F)cn3)nc2C2CC2)C2CCCCC2)cc1` (centres unmarked) [Example 10, 3-[({4-[(cyclohexyl{3-cyclopropyl-1-[5-(trifluoromethyl)pyridin-2-yl]-1H-pyrazol-4-yl}methyl)amino]phenyl}carbonyl)(methyl)amino]propanoic acid]: the inhibition at 10 µM turned out to be 76%.

With `Cc1nn(-c2ccc(C(F)(F)F)cn2)cc1C(Nc1ccc(C(=O)N(C)CCC(=O)O)cc1)C1CCCCC1` (centres unmarked) [Example 2, 3-[({4-[(cyclohexyl{3-methyl-1-[5-(trifluoromethyl)pyridin-2-yl]-1H-pyrazol-4-yl}methyl)amino]phenyl}carbonyl)(methyl)amino]propanoic acid], the inhibition at 10 µM turned out to be 72%.

On to `COCc1nn(-c2cccc(C(F)(F)F)n2)cc1C(Nc1ccc(C(=O)NCCC(=O)O)cc1)C1CCCCC1` (centres unmarked) [Example 91, 3-[({4-[(cyclohexyl{3-(methoxymethyl)-1-[6-(trifluoromethyl)pyridin-2-yl]-1H-pyrazol-4-yl}methyl)amino]phenyl}carbonyl)amino]propanoic acid], for which the inhibition at 10 µM is 71%.

For the molecule `O=C(O)CCNC(=O)c1ccc(NC(c2nn(C3CCCCC3)c3ccccc23)C2CCCCC2)cc1` (centres unmarked) [Example A19, 3-{[(4-{[cyclohexyl(1-cyclohexyl-1H-indazol-3-yl)methyl]amino}phenyl)carbonyl]amino}propanoic acid], the inhibition at 10 µM is 71%.

As for `Cc1c(C(Nc2ccc(C(=O)N(C)CCC(=O)O)cc2)C2CCCCC2)oc2ccc(OC3CCSCC3)cc12` (centres unmarked) [Example A160, 3-[{[4-({cyclohexyl[3-methyl-5-(tetrahydro-2H-thiopyran-4-yloxy)-1-benzofuran-2-yl]methyl}amino)phenyl]carbonyl}(methyl)amino]propanoic acid], the inhibition at 10 µM turned out to be 92%.

As for `Cc1c(C(Nc2ccc(C(=O)N(C)CCC(=O)O)cc2)C2CCCCC2)oc2ccc(NC(=O)c3ccccc3)cc12` (centres unmarked) [Example A129, 3-[({4-[(cyclohexyl{3-methyl-5-[(phenylcarbonyl)amino]-1-benzofuran-2-yl]methyl)amino}phenyl]carbonyl)(methyl)amino}propanoic acid], the inhibition at 10 µM was determined as 82%.

For `COc1cc(OC)cc(-n2cc(C(Nc3ccc(C(=O)N(C)CCC(=O)O)cc3)C3CCCCC3)c(C)n2)c1` (centres unmarked) [Example 81, 3-[{[4-({cyclohexyl[1-(3,5-dimethoxyphenyl)-3-methyl-1H-pyrazol-4-yl]methyl}amino)phenyl]carbonyl}(methyl)amino]propanoic acid], the inhibition at 10 µM was 82%.

With `O=C(O)CCNC(=O)c1ccc(NC(c2cc3ccc(C(F)(F)F)cc3s2)C2CCCCC2)cc1` (centres unmarked) [Example A12, 3-({[4-({cyclohexyl[6-(trifluoromethyl)-1-benzothiophen-2-yl]methyl}amino)phenyl]carbonyl}amino)propanoic acid], the inhibition at 10 µM was 72%.

In the case of `COc1ccc2oc(C(Nc3ccc(C(=O)N(C)CCC(=O)O)cc3)C3CCCCC3)c(Br)c2c1` (centres unmarked) [Example A103, 3-{[(4-{[(3-bromo-5-methoxy-1-benzofuran-2-yl)(cyclohexyl)methyl]amino}phenyl)carbonyl](methyl)amino}-propanoic acid], the inhibition at 10 µM came out at 66%.

Turning to `COCc1nn(-c2ccccc2)cc1C(Nc1ccc(C(=O)N(C)CCC(=O)O)cc1)C1CCCCC1` (centres unmarked) [Example 38, 3-[{[4-({cyclohexyl[3-(methoxymethyl)-1-phenyl-1H-pyrazol-4-yl]methyl}amino)phenyl]carbonyl}(methyl)amino]propanoic acid], the inhibition at 10 µM came out at 53%.

Regarding `Cc1c(C(Nc2ccc(C(=O)N(C)CCC(=O)O)nc2)C2CCCCC2)oc2ccc(F)cc12` (centres unmarked) [Example A56, 3-{[(5-{[cyclohexyl(5-fluoro-3-methyl-1-benzofuran-2-yl)methyl]amino}pyridin-2-yl)carbonyl](methyl)amino}propanoic acid], the inhibition at 10 µM came out at 76%.
